Measurements taken from US8871460B2, “Gamma-secretase modulatory compounds, methods for identifying same, and uses therefor” (Neurogenetic Pharmaceuticals, Inc., priority 2009, dated 2014).

Tests used:
gamma-secretase [1] = assay: Immunoprecipitation and immunoblot analysis of Aβ in CHO-APPSwe conditioned medium; type: cell-based, Chinese Hamster; settings: 18 h, Compound 2 0.3-1000 nM, GSI 1 3-1000 nM
Experimental: For this analysis, CHO-APPSwe cells were treated with concentrations of Compound 2 ranging from 0.3 nM to 1000 nM, or with concentrations of a gamma-secretase inhibitor, GSI 1 (Tian et al. (2002) J. Biol. Chem. 277 (35), 31499-31505) ranging from 3 nM to 1000 nM, or with vehicle (0.12% DMSO), for 18 hours. The conditioned medium was collected and immunoprecipitated with the anti-Aβ1-12 antibody B436. Samples were denatured and electrophoresed on gels prepared according to Wiltfang et al. (1997) Electrophoresis 18:527-532, with the following improvements: the separating gel contained 12.5% instead of 15% acrylamide, the comb gel layer was omitted, and glycerol (25%) and DTT (100 mM) were substituted for sucrose and β-mercaptoethanol in the 2× sample buffer. Chemically synthesized Aβ1-37, Aβ1-38, Aβ1-40 and Aβ1-42 peptides (Bachem) were run as size standards. After electrophoresis, the peptides were transferred to nitrocellulose filters and immunoblotted with a biotinylated B436 antibody to detect the various Aβ alloforms.

[2] = system: γ-secretase-dependent cleavage of E-cadherin; assay: γ-secretase-dependent cleavage of E-cadherin in A431 cells, western blotting; type: cell-based, Human; settings: overnight (16-18 h), then 6 h 1 μM staurosporine
Experimental: To measure γ-secretase-dependent cleavage of E-cadherin, an assay similar to that described by Marambaud et al. (2002) EMBO 21: 1948-1956 was developed. Human A431 cells which endogenously express detectable levels of E-cadherin and cleave full length E-cadherin upon treatment with staurosporine are treated overnight (16-18 h) with either test compound or control γ-secretase inhibitor (DAPT). Cleavage of E-cadherin is induced by a 6 h treatment with 1 μM staurosporine. Cell lysates are analyzed for levels of γ-CTF by western blotting and protein bands are quantified by densitometry.

GST-Pen2 = GST-Pen2 (Homo sapiens, UniProt Q9NZ42); assay: Surface plasmon resonance (SPR) assay, Biacore 2000; settings: equilibrium responses fit to 1:1 binding isotherm; estimated
Experimental: A surface plasmon resonance (SPR) assay was performed using the Biacore™ 2000 system and control software (Biacore Life Sciences), essentially as described in Warnmark et al. (2001) J. Biol. Chem. 276:23397-23404. Compound 2 or L-685,458 (Sigma #L1790) were diluted 30 fold from a 25 mM stock in 100% DMSO, then each further diluted into running buffer containing 10 mM HEPES, 150 mM NaCl, 1% Triton X-100, pH 7.4. The compounds were run in a 3-fold dilution series over a GST-Pen2 or a free GST flow cell surface. The binding responses at equilibrium for each compound were fit to a 1:1 binding isotherm in order to estimate the binding affinities.

[3] = system: ε-cleavage of a gamma-secretase substrate, Notch; assay: Epsilon cleavage assay: Notch (NICD) in HEK293 cells overexpressing APP751 and NΔE/S2; type: cell-based; settings: 18 h
Experimental: The effect of Compound 2 treatment on ε-cleavage of a gamma-secretase substrate, Notch, was assessed using an HEK293 clonal cell line overexpressing APP751 and the Notch construct NΔE/S2. The NΔE/S2 construct lacks most of the extracellular domain of Notch (Schroeter et al. (1998) Nature 393:382-386), and when cleaved by γ-secretase results in production of the Notch intracellular domain (NICD). The cells were plated in replicate 24-well dishes and treated in triplicate with 30 μM of Compound 2, 1 μM of the gamma secretase inhibitor N—[N-(3,5-Difluorophenacetyl-L-alanyl)]S-phenylglycine t-butyl ester (DAPT), or vehicle (0.12% DMSO), for 18 h. Following compound treatment, conditioned medium was collected and analyzed for levels of secreted Aβ40, which confirmed compound activity. Cell lysates were prepared and separated on a 4-20% Tris-glycine gel and probed with an anti-NICD antibody (Cell Signaling, #2421) specific for the cleaved NICD, or anti-GAPDH, which served as a loading control for each lane. NICD bands were then quantified by densitometry and an average of replicate values was compared to the vehicle controls.

gamma-secretase [4] = assay: Sandwich ELISA of secreted Aβ from CHO-APPSwe cells; type: cell-based, Chinese Hamster; settings: 18 h
Experimental: For ELISA analysis, CHO-APPSwe cells were seeded at a density of 100K/well in 96-well plates and allowed to adhere overnight. Medium was removed and replaced with complete DMEM medium containing either vehicle alone (DMSO) or a dose-response of Compound 2 or GSI 1 (the gamma-secretase inhibitor designated Inhibitor 1 in Tian et al. (2002) J. Biol. Chem. 277:31499-31505). Cells were incubated with compounds for 18 h, medium collected, and levels of secreted Aβ determined as described below. Cytotoxicity was determined on each well to be less than 30% using an Alamar Blue assay (see US Published Application 2005/0070538).
Secreted Aβ38 peptide was quantified using an ultra-sensitive sandwich ELISA assay kit (Meso Scale Detection catalog #K111FSE-2) and the Meso Scale Sector Imager 6000 for detection, according to the manufacturer's recommended protocol. Captured Aβ was quantified by comparing ECL signals of the samples to a standard curve (included on each plate) using synthetic Aβ prepared in complete DMEM medium. Aβ standard peptides were purchased from Bachem and stored at 0.5 mg/ml in hexafluoroisopropanol (HFIP) at −20° C.
Secreted Aβ40, Aβ42, and total Aβ were measured using specific sandwich ELISAs. Aβ peptides were captured using either an Aβ40-selective monoclonal antibody (B113), an Aβ42-selective monoclonal antibody (A387), or a total Aβ (1-x) capture monoclonal antibody raised to the amino-terminal region (B436) (see PCT publication WO 04/018997).
Briefly, 96-well white ELISA plates were coated with the appropriate capture antibody, wells were blocked with 1% BSA/TBS, and then samples were assayed in complete medium at an appropriate dilution so that the relative luminescent units (RLUs) were in the linear range of the standard curve. Following sample incubation for all ELISAs, plates were washed and exposed to an alkaline phosphatase (AP) conjugated secondary antibody. For Aβ40 and Aβ42, B436-AP was used as the second antibody in the sandwich ELISA. For the total Aβ ELISA, 4G8-biotin (Signet) (a monoclonal antibody that recognizes the Aβ17-24) was used in combination with strepavidin-AP as the detection complex. Thus, for this experiment, total Aβ includes Aβ peptides from 1-x, where x>24. Bound AP-conjugates were detected with CSPD-Sapphire II Luminescence Substrate (Applied Biosystems) and plates were read using a standard 96-well luminometer.
Captured Aβ was quantified by comparing RLU values of the samples to a standard curve (included on each plate) using synthetic Aβ prepared in complete media. Aβ standard peptides were purchased from Bachem and stored at 0.5 mg/ml in hexafluoroisopropanol (HFIP) at −20° C.

gamma-secretase [5] = assay: Mass spectrometry (SELDI) analysis of secreted Aβ from CHO-APPSwe cells; type: cell-based, Chinese Hamster; settings: 1 μM, 18 h
Experimental: CHO-APPSwe cells were plated at 1 million cells per well in 6-well dishes and treated with complete DMEM medium containing either vehicle alone (DMSO), 1 μM Compound 2, or 1 μM GSI 1. Cells were incubated for 18 h, medium collected, and levels of secreted Aβ determined by mass spectrometry. Briefly, collected medium was immunoprecipitated overnight using antibody B436 coupled directly to Sepharose. Fifty ng of Aβ1-28 peptide was spiked into the medium as an internal standard. The Sepharose beads were then washed with TBS and bound Aβ was eluted with acetonitrile/0.1% trifluoroacetic acid. Eluate (3-6 μl) was spotted on NP20 chips (Ciphergen). Once the samples were dry, 20% CHCA matrix was spotted (1 μl) and allowed to dry. Chips were read on a SELDI Ciphergen mass spectrometer and Aβ peptides were identified by expected mass and comparison to standard purchased Aβ peptides (Bachem).

[6] = system: ε-cleavage of endogenous E-cadherin; settings: cited from earlier work
[7] = to a lesser extent than Aβ37 and Aβ38

GST-Pen2, sequence (Q9NZ42 whole entry): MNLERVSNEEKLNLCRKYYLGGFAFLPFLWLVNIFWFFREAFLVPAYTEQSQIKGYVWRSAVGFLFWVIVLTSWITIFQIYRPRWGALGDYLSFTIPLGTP

COc1cc(C)c(Nc2nc(-c3ccc(-n4cnc(C)c4)c(F)c3)cs2)cc1C(C)C [Compound 2]
level of Aβ1-37 in conditioned medium (gamma-secretase [1]): increase | level of Aβ1-38 in conditioned medium (gamma-secretase [1]): increase | level of Aβ1-40 in conditioned medium (gamma-secretase [1]): lower | inhibition of E-cadherin cleavage/processing (γ-CTF) [2]: no detectable inhibition | Kd (GST-Pen2): 6.5 µM | inhibition of Notch processing ([3]; up to 30 μM): no detectable inhibition | secreted Aβ40 level (gamma-secretase [4]; ELISA): concentration dependent decrease | secreted Aβ42 level (gamma-secretase [4]; ELISA): concentration dependent decrease | total Aβ level (gamma-secretase [4]; ELISA, Aβ 1-x, x>24): did not significantly change | secreted Aβ38 level (gamma-secretase [4]; ultra-sensitive sandwich ELISA): markedly increased | Aβ37 compared to vehicle treated cells (gamma-secretase [5]): increased | Aβ38 compared to vehicle treated cells (gamma-secretase [5]): increased | Aβ33 compared to vehicle treated cells (gamma-secretase [5]; [7]): increased | Aβ34 compared to vehicle treated cells (gamma-secretase [5]; [7]): increased

C[C@H](NC(=O)Cc1cc(F)cc(F)c1)C(=O)N[C@H]1N=C(c2ccccc2)c2ccccc2N(C)C1=O [Compound E]
effect on E-cadherin CTF1 or CTF3 [6]: no effect | formation of E-cadherin CTF2 [6]: inhibit

C[C@H](NC(=O)Cc1cc(F)cc(F)c1)C(=O)N[C@H](C(=O)OC(C)(C)C)c1ccccc1 [DAPT, N—[N-(3,5-Difluorophenacetyl-L-alanyl)]S-phenylglycine t-butyl ester, reference compound]
inhibition of E-cadherin cleavage/processing (γ-CTF) [2]: completely inhibits | effect on E-cadherin CTF1 or CTF3 [6]: no effect | formation of E-cadherin CTF2 [6]: inhibit | inhibition of NICD formation ([3]; 1 μM): > 95%

CC(C)C[C@H](NC(=O)[C@H](Cc1ccccc1)C[C@@H](O)[C@H](Cc1ccccc1)NC(=O)OC(C)(C)C)C(=O)N[C@@H](Cc1ccccc1)C(N)=O [L-685,458]
Kd (GST-Pen2): 1900 µM | effect on E-cadherin CTF1 or CTF3 [6]: no effect | formation of E-cadherin CTF2 [6]: inhibit
